Measurements from ChEMBL document CHEMBL6153147 (J Med Chem, 2025).

Key:
[1] = biological target: Dual specificity protein kinase CLK2 (Homo sapiens) (UniProt P49760); experiment: Inhibition of human CLK2 assessed as residual activity at 10 uM by kinome selectivity profiling analysis relative to control
[2] = Acute toxicity in mouse assessed as damage in heart at 500 mg/kg, IG qd treated for 7 days by H and E staining based analysis; format: organism-based; conditions: in vivo, po, 168 h, time 7 day
[3] = biological target: Voltage-gated inwardly rectifying potassium channel KCNH2 (Homo sapiens, UniProt Q12809); experiment: Inhibition of hERG transfected in CHO cells; format: toxicity, cell-based
Cytochrome P450 2D6 = Cytochrome P450 2D6 (Homo sapiens, UniProt P10635); experiment: Inhibition of CYP2D6 in human liver microsomes using dextromethorphan as substrate preincubated with compound followed by substrate addition measured after 10 mins in presence of NADPH by LC-MS/MS analysis; format: ADME, Microsome
[4] = Selectivity ratio of IC50 for inhibition of human PLK3 using ATF2 as substrate to IC50 for inhibition of human PLK1 using ATF2 as substrate
[5] = biological target: Serine/threonine-protein kinase PLK2 (Homo sapiens, UniProt Q9NYY3); experiment: Inhibition of human PLK2 assessed as residual activity at 10 uM by kinome selectivity profiling analysis relative to control
PC-9 = experiment: cells; conditions: Homo sapiens
Homo sapiens = organism: Homo sapiens; experiment: Inhibition of human HRI assessed as residual activity at 10 uM by kinome selectivity profiling analysis relative to control
[6] = Effect on F-actin cytoskeleton in HEK293T cells at 10 uM incubated for 24 hrs by immunofluorescence based analysis; format: toxicity, cell-based; conditions: human, hek-293t
[7] = Selectivity ratio of IC50 for inhibition of human PLK2 using ATF2 as substrate to IC50 for inhibition of human PLK1 using ATF2 as substrate
[8] = Acute hematopoietic toxicity in mouse assessed as effect on white blood cells at 500 mg/kg, IG qd treated for 7 days; format: organism-based; conditions: in vivo, po, 168 h, time 7 day

Chain of Voltage-gated inwardly rectifying potassium channel KCNH2 (Q12809 whole entry): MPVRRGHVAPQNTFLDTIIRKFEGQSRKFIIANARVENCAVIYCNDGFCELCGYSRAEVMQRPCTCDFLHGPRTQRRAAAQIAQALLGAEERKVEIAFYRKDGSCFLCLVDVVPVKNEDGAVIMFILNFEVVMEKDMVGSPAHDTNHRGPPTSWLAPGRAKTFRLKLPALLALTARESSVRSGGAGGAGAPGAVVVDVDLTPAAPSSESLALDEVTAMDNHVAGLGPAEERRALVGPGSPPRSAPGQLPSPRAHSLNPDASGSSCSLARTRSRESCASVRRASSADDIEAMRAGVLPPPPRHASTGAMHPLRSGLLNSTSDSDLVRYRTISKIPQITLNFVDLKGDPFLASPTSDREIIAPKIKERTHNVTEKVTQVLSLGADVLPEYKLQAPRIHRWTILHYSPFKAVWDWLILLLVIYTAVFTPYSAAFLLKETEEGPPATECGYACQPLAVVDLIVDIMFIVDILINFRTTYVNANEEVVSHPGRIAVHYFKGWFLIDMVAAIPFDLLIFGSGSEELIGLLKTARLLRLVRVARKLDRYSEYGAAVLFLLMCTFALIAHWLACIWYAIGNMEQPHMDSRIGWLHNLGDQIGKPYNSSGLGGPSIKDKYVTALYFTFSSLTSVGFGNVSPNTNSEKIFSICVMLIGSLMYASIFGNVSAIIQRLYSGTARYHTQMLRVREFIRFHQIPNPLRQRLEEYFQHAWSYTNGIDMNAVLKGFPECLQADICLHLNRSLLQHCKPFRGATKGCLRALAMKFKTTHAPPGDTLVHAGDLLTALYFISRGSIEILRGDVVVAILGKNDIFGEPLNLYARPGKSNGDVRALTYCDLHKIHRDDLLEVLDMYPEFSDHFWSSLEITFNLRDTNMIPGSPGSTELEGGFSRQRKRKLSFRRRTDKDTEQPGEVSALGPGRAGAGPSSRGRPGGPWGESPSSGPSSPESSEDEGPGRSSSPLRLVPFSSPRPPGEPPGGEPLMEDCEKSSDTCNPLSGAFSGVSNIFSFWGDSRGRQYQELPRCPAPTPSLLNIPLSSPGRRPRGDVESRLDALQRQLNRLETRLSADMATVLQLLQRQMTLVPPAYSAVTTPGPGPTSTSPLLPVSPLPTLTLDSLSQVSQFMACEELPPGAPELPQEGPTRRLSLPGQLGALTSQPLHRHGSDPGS
Chain of Cytochrome P450 2D6 (P10635 whole entry): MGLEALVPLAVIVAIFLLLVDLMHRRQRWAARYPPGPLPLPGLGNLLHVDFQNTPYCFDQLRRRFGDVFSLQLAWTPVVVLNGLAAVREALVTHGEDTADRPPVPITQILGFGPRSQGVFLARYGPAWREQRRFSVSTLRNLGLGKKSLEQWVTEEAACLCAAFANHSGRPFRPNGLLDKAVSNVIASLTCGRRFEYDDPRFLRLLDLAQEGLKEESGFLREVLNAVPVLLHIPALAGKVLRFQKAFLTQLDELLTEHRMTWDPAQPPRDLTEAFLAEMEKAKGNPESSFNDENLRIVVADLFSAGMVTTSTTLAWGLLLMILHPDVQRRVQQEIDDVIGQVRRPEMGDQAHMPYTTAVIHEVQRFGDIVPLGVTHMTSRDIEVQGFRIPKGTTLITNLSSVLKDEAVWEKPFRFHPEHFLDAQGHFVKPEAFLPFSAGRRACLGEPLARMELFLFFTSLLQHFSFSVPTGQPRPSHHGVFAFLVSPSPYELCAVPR
Chain of Dual specificity protein kinase CLK2 (Homo sapiens) (P49760 whole entry, looked up): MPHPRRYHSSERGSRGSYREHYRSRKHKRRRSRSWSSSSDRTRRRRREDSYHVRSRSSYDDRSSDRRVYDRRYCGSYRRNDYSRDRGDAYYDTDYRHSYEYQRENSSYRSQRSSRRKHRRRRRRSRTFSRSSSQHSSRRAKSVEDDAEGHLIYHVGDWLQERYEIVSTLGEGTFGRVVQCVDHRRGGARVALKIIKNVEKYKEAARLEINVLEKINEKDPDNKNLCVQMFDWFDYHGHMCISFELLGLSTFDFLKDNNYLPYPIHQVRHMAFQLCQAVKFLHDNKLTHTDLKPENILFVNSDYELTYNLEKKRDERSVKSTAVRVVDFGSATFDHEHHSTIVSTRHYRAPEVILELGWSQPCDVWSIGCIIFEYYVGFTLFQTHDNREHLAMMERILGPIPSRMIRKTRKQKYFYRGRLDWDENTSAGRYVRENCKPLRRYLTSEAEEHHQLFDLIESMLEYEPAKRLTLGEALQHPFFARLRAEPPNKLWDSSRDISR
Chain of Serine/threonine-protein kinase PLK2 (Q9NYY3 whole entry, looked up): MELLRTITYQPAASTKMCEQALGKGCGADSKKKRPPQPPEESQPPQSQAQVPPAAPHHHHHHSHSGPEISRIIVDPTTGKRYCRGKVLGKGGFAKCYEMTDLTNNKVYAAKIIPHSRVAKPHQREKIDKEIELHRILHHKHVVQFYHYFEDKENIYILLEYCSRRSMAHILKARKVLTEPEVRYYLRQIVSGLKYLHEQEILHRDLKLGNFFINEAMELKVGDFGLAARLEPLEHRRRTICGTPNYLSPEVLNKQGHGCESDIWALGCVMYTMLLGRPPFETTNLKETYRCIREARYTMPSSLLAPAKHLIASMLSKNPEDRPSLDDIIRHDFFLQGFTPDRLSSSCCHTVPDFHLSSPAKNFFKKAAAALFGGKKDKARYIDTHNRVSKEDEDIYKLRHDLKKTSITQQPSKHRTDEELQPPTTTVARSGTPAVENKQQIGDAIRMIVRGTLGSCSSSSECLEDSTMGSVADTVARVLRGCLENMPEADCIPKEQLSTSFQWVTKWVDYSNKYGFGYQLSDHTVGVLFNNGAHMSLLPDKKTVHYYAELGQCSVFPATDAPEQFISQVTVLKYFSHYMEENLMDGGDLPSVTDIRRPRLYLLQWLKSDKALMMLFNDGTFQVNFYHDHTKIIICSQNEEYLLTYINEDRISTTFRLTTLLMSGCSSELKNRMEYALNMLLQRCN

In the case of `CC[C@@H]1C(=O)N(C)c2cnc(Nc3cc(N4CCN(C)CC4)cc(Cl)c3OCCCO)nc2N1C1CCCC1`, the Activity [1] is reported as 70%, the Activity [2] is reported as “Non-toxic” and the IC50 [3] is reported as 44.2 µM. For the same compound, the IC50 (Cytochrome P450 2D6) was over 10 µM, the ratio [4] was 197 and the Activity [5] was 48%. For the same compound, the IC50 (PC-9) was 0.775 µM, the Activity (Homo sapiens) was 54% and the Activity [6] was “Non-toxic”. The ratio [7] was over 601 and the Activity [8] was “Non-toxic”.
